Test results as given in PubChem BioAssay AID2060625 (Molecular Pharmacology Branch, DTP, NCI, 2025).

Test system: 186277-243-T-J2-PDC spheroids with HUVEC/MSC, viability
Test: Anticancer human tumor 186277-243-T-J2-PDC patient-derived colon adenocarcinoma cell line growth inhibition [CLK]
Details: for IC50: curve of first compound; for viability, T/C: stronger effect = lower value
Procedure, shortened: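 Multi-cell-type spheroids combined patient-derived tumor cells with HUVEC endothelial cells and human mesenchymal stem cells. Paired agents were dosed in half-log steps down from about clinical Cmax, or from 10 microM where Cmax was unknown.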

[1] = second compound 0.0316 µM, first compound 0.0316 µM
[2] = second compound 0.0316 µM, first compound 0.1 µM
[3] = second compound 0.0316 µM, first compound 0.316 µM
[4] = second compound 0.0316 µM, first compound 1 µM
[5] = second compound 0.0316 µM, first compound 3.16 µM
[6] = second compound 0.0316 µM, first compound 10 µM
[7] = second compound 0.1 µM, first compound 0.0316 µM
[8] = second compound 0.1 µM, first compound 0.1 µM
[9] = second compound 0.1 µM, first compound 0.316 µM
[10] = second compound 0.1 µM, first compound 1 µM
[11] = second compound 0.1 µM, first compound 3.16 µM
[12] = second compound 0.1 µM, first compound 10 µM
[13] = second compound 0.316 µM, first compound 0.0316 µM
[14] = second compound 0.316 µM, first compound 0.1 µM
[15] = second compound 0.316 µM, first compound 0.316 µM
[16] = second compound 0.316 µM, first compound 1 µM
[17] = second compound 0.316 µM, first compound 3.16 µM
[18] = second compound 0.316 µM, first compound 10 µM
[19] = second compound 1 µM, first compound 0.0316 µM
[20] = second compound 1 µM, first compound 0.1 µM
[21] = second compound 1 µM, first compound 0.316 µM
[22] = second compound 1 µM, first compound 1 µM
[23] = second compound 1 µM, first compound 3.16 µM
[24] = second compound 1 µM, first compound 10 µM
[25] = second compound 3.16 µM, first compound 0.0316 µM
[26] = second compound 3.16 µM, first compound 0.1 µM
[27] = second compound 3.16 µM, first compound 0.316 µM
[28] = second compound 3.16 µM, first compound 1 µM
[29] = second compound 3.16 µM, first compound 3.16 µM
[30] = second compound 3.16 µM, first compound 10 µM
[31] = second compound 10 µM, first compound 0.0316 µM
[32] = second compound 10 µM, first compound 0.1 µM
[33] = second compound 10 µM, first compound 0.316 µM
[34] = second compound 10 µM, first compound 1 µM
[35] = second compound 10 µM, first compound 3.16 µM
[36] = second compound 10 µM, first compound 10 µM
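Also: compound exposure lasted seven days before readout.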
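For viability, T/C in this document: 100% = DMSO vehicle control wells.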

COc1ccc([C@@H](O)c2cc(-c3ncnc4cc(N5CCOCC5)ccc34)c(F)cc2Cl)nn1 + CNC(=O)c1ccc(Nc2nc(OC3CCCC3)c3c(-c4ccc5nc(C)oc5c4)c[nH]c3n2)c(OC)c1
IC50 (second compound 0.0316 µM): 7660 nM
IC50 (second compound 0.1 µM): 384 nM
IC50 (second compound 0.316 µM): < 31.6 nM
IC50 (second compound 1 µM): < 31.6 nM
IC50 (second compound 3.16 µM): < 31.6 nM
IC50 (second compound 10 µM): < 31.6 nM
viability, T/C [1]: 102%
viability, T/C [2]: 86.8%
viability, T/C [3]: 110%
viability, T/C [4]: 87.6%
viability, T/C [5]: 73.7%
viability, T/C [6]: 43%
viability, T/C [7]: 71.8%
viability, T/C [8]: 62.5%
viability, T/C [9]: 50.2%
viability, T/C [10]: 42.7%
viability, T/C [11]: 31.9%
viability, T/C [12]: 23.5%
viability, T/C [13]: 38.7%
viability, T/C [14]: 40.7%
viability, T/C [15]: 29.9%
viability, T/C [16]: 23.7%
viability, T/C [17]: 18.6%
viability, T/C [18]: 14.5%
viability, T/C [19]: 30.4%
viability, T/C [20]: 25.2%
viability, T/C [21]: 23.4%
viability, T/C [22]: 16.2%
viability, T/C [23]: 12.9%
viability, T/C [24]: 12.2%
viability, T/C [25]: 27.1%
viability, T/C [26]: 29.2%
viability, T/C [27]: 23.2%
viability, T/C [28]: 18.5%
viability, T/C [29]: 16%
viability, T/C [30]: 10.7%
viability, T/C [31]: 28.7%
viability, T/C [32]: 29.5%
viability, T/C [33]: 23.2%
viability, T/C [34]: 19.8%
viability, T/C [35]: 17.2%
viability, T/C [36]: 9%

COc1cccc2c1C(=O)c1c(O)c3c(c(O)c1C2=O)CC(O)(C(=O)CO)CC3OC1CC(N)C(O)C(C)O1 (centres undefined) + CNC(=O)c1ccc(Nc2nc(OC3CCCC3)c3c(-c4ccc5nc(C)oc5c4)c[nH]c3n2)c(OC)c1
IC50 (second compound 0.0316 µM): 161 nM
IC50 (second compound 0.1 µM): 138 nM
IC50 (second compound 0.316 µM): 66 nM
IC50 (second compound 1 µM): < 31.6 nM
IC50 (second compound 3.16 µM): < 31.6 nM
IC50 (second compound 10 µM): < 31.6 nM
viability, T/C [1]: 112%
viability, T/C [2]: 73.5%
viability, T/C [3]: 17.3%
viability, T/C [4]: 0.3%
viability, T/C [5]: 3.88%
viability, T/C [6]: 1.97%
viability, T/C [7]: 72.2%
viability, T/C [8]: 64.4%
viability, T/C [9]: 13%
viability, T/C [10]: 0.2%
viability, T/C [11]: 1.92%
viability, T/C [12]: 4.82%
viability, T/C [13]: 52.4%
viability, T/C [14]: 48.7%
viability, T/C [15]: 10.6%
viability, T/C [16]: 1.25%
viability, T/C [17]: 2.88%
viability, T/C [18]: 1.07%
viability, T/C [19]: 40.7%
viability, T/C [20]: 27.5%
viability, T/C [21]: 3.75%
viability, T/C [22]: 2.42%
viability, T/C [23]: 6.62%
viability, T/C [24]: 3.37%
viability, T/C [25]: 34.2%
viability, T/C [26]: 19.9%
viability, T/C [27]: 3.14%
viability, T/C [28]: 2.25%
viability, T/C [29]: 1.39%
viability, T/C [30]: 1.97%
viability, T/C [31]: 34.8%
viability, T/C [32]: 16.9%
viability, T/C [33]: 4.4%
viability, T/C [34]: 2.28%
viability, T/C [35]: 3.08%
viability, T/C [36]: 3.22%
